Key:
Type in all cases: cell-based
[1] = system: MDA-MB-435; assay: NCI DTP 60 cell line five-concentration test, melanoma panel; details: for CC50 / GI50: Homo sapiens; for CC50: MDA-MB-435, read-out: LC50 (50% lethal concentration); for GI50 / TGI (total growth inhibition): MDA-MB-435 melanoma cell line
Procedure: (§1) In our effort to develop new methodologies to synthesize bioactive compounds [11–14], we have synthesized a number of thiazole and thiazolo-androstenone derivatives. We submitted 50 of the synthesized thiazole–androstenone derivatives to the National Cancer Institute (NCI) Development Therapeutics Program (DTP) to test against 60 cancer cell lines (https://dtp.cancer.gov/). These compounds were tested for cytotoxicity at a single dose of 10 µM. […] Eight of these chimeric compounds (figure 2) were selected for further testing at five different concentrations to determine 50% growth inhibition (GI50), total growth inhibition (TGI) and 50% lethal concentration (LC50) values. […] Overall, amino-thiazole derivatives (table 1, 1–7) were more toxic to melanoma cell lines than phenyl thiazole derivatives (8). Fluoro and oxy (hydroxy and methoxy) derivatives were the potent growth inhibitors of the tested cancer cell lines. LOX IMVI cell line was the most susceptible among all the melanoma cell lines used against the tested compounds (table 1). […] Phenyl ethyl derivative (1) inhibited the growth of all the cell lines except SK-MEL-2. […] 2,4-Dimethyl substituted derivative (7) is a potent growth inhibitor of all the tested cell lines of the melanoma panel.

[2] = system: M14; assay: as above; details: for CC50: M14, read-out: LC50 (50% lethal concentration)
Procedure: as §1

[3] = system: SK-MEL-28; assay: as above; details: for CC50: SK-MEL-28, read-out: LC50 (50% lethal concentration)
Procedure: as §1

[4] = system: LOX IMVI; assay: as above; details: for LC50 (50% lethal concentration) / GI50: Homo sapiens; for LC50 (50% lethal concentration): LOX IMVI, read-out: LC50 (50% lethal concentration); for GI50 / TGI (total growth inhibition): LOX IMVI melanoma cell line
Procedure: as §1

[5] = system: UACC-62; assay: as above; details: for LC50 (50% lethal concentration): UACC-62, read-out: LC50 (50% lethal concentration)
Procedure: as §1

[6] = system: UACC-257; assay: as above; details: for CC50 / GI50: Homo sapiens; for CC50: UACC-257, read-out: LC50 (50% lethal concentration); for GI50 / TGI (total growth inhibition): UACC-257 melanoma cell line
Procedure: as §1

[7] = system: SK-MEL-5; assay: as above; details: for CC50 / GI50: Homo sapiens; for CC50: SK-MEL-5, read-out: LC50 (50% lethal concentration); for GI50 / TGI (total growth inhibition): SK-MEL-5 melanoma cell line
Procedure: as §1

[8] = system: MALME-3M; assay: as above; details: for CC50 / GI50: Homo sapiens; for CC50: Malme-3M, read-out: LC50 (50% lethal concentration); for GI50 / TGI (total growth inhibition): MALME-3M melanoma cell line
Procedure: as §1

[9] = system: SK-MEL-2; assay: as above; details: for LC50 (50% lethal concentration) / GI50: Homo sapiens; for LC50 (50% lethal concentration): SK-MEL-2, read-out: LC50 (50% lethal concentration); for GI50 / TGI (total growth inhibition): SK-MEL-2 melanoma cell line
Procedure: as §1

[10] = system: SK-MEL-28 cell line; assay: Annexin V flow cytometry apoptosis assay; details: SK-MEL-28, 12 µM
Procedure: After determining the selective toxicity of potent molecules, we determined their mode of action against the melanoma cell line. Apoptosis or programmed cell death is a physiological process to remove unwanted or damaged mammalian cells. We detected apoptosis mode of cell death by our potent compounds using flow cytometry-based Annexin V assay. Compound 3 caused 23% apoptosis at 6 µM and 54% apoptosis at 12 µM (figure 3). 3-Fluorophenyl derivative (5) was a very potent apoptosis-inducing agent that caused 100% cell death at 12 µM concentration. Dacarbazine, the positive control, caused 22% apoptotic cell death at 200 µM concentration.
Figure 3. Apoptosis measurements using Annexin V flow cytometry assay of compounds 3 and 5 against SK-MEL-28 cell line at 6 and 12 µM concentrations. DMSO and dacarbazine (Daca) are negative and positive controls, respectively. Mean ± s.e.m., n = 3 per group.

[11] = system: HFF-1 cell line; assay: Toxicity for normal human foreskin fibroblast cell line; details: normal human foreskin fibroblast HFF-1; for IC50: read-out: IC50 against HFF1 cell line
From the text: To assess the potential use of lead compounds as anti-melanoma agents, we tested their toxicity for the normal human foreskin fibroblast (HFF-1) cell line taking into consideration that MM is usually surrounded by the cells of this kind. The effects of some of the potent compounds on this cell line were very encouraging (table 4).

[12] = system: endonuclease G (EndoG); assay: EndoG immunocytochemistry combined with TUNEL (caspase-independent apoptosis); details: melanoma cells, 5 or 10 µM, 24 h
From the text: (§2) The elevation was dose-dependent.
(§3) Figure 4. […] (c) Representative images. […] Mean ± s.e.m., n = 4 per group.
(§4) Figure 5. […] (a) Representative images of TUNEL colocalized or not colocalized with each of the three protein markers used in this study. […] Mean ± s.e.m., n = 4 per group.
(§5) Thus, to determine the mechanism of action of our compounds on melanoma cells in vitro, we applied the fluorescent TUNEL assay combined with quantitative ICC for three markers: HO1 for oxidative cell injury, CAD for caspase-mediated apoptosis and EndoG for caspase-independent apoptosis. […] However, none of the compounds or dacarbazine induced apoptotic endonucleases. This is not surprising because apoptotic endonucleases are commonly present in the cell in sufficient amounts to be able to destroy DNA upon cell death without induction (which most likely would not be possible in a dead cell).

[13] = system: caspase-activated DNase (CAD); assay: CAD immunocytochemistry combined with TUNEL (caspase-mediated apoptosis); details: melanoma cells, 5 or 10 µM, 24 h
From the text: as §2, §3, §4, §5

[14] = system: heme oxygenase-1 (HO1); assay: HO1 immunocytochemistry combined with TUNEL (oxidative injury); details: melanoma cells, 24 h; for HO1 mean intensity (oxidative injury): 10 µM
From the text: as §2, §3, §4, §5

[15] = Homo sapiens, M14, M14 melanoma cell line
[16] = Homo sapiens, SK-MEL-28, SK-MEL-28 melanoma cell line
[17] = Homo sapiens, UACC-62, UACC-62 melanoma cell line

| Structure (SMILES) | CC50 [1] [µM] | GI50 [1] [µM] | TGI (total growth inhibition) [1] [µM] | GI50 [2, 15] [µM] | CC50 ([2]; Homo sapiens) [µM] | TGI (total growth inhibition) ([2]; M14 melanoma cell line) [µM] | GI50 [3, 16] [µM] | CC50 ([3]; Homo sapiens) [µM] | TGI (total growth inhibition) ([3]; SK-MEL-28 melanoma cell line) [µM] | LC50 (50% lethal concentration) [4] [µM] | GI50 [4] [µM] | TGI (total growth inhibition) [4] [µM] | GI50 [5, 17] [µM] | LC50 (50% lethal concentration) ([5]; Homo sapiens) [µM] | TGI (total growth inhibition) ([5]; UACC-62 melanoma cell line) [µM] | CC50 [6] [µM] | GI50 [6] [µM] | CC50 [7] [µM] | GI50 [7] [µM] | TGI (total growth inhibition) [7] [µM] | further results |
| --- | --- | --- | --- | --- | --- | --- | --- | --- | --- | --- | --- | --- | --- | --- | --- | --- | --- | --- | --- | --- | --- |
| C[C@]12CCc3nc(Nc4cccc(F)c4)sc3C1=CC[C@@H]1[C@@H]2CC[C@]2(C)C(=O)CC[C@@H]12 [Compound 5] | > 100 | 2.74 | 13.1 | 2.36 | 81.4 | 7.23 | ≥ 1.32 | 19.9 | 4.27 | 6.16 | 1.67 | 3.21 | 1.54 | 6.31 | 3.12 | > 100 | 5.47 | 9.24 | 2.02 | 4.32 | GI50 ([3]; SK-MEL-28 melanoma cell line): 1.52 µM; TGI (total growth inhibition) [6]: 64 µM; CC50 [8]: 26.7 µM; GI50 [8]: 1.94 µM; TGI (total growth inhibition) [8]: 5.04 µM; LC50 (50% lethal concentration) [9]: 26.7 µM; GI50 [9]: 1.86 µM; TGI (total growth inhibition) [9]: 5.19 µM; apoptosis [10]: 100%; toxicity against HFF1 cells (in words) [11]: somewhat toxic; IC50 [11]: 5.9 µM; EndoG mean intensity [12]: No significant induction; CAD mean intensity [13]: No significant induction; colocalization of CAD with TUNEL (caspase-mediated apoptosis) [13]: induced the colocalization of CAD with TUNEL; HO1 mean intensity (oxidative injury) [14]: induced oxidative injury; HO1 staining in TUNEL-positive cells (oxidative injury) ([14]; 5 or 10 µM): strongly induced oxidative injury |
| C[C@]12CCc3nc(Nc4ccccc4)sc3C1=CC[C@@H]1[C@@H]2CC[C@]2(C)C(=O)CC[C@@H]12 [Compound 2] | > 100 | 3.49 | >100 | < 10 | > 100 | 50.9 | 20.5 | > 100 | >100 | 48.1 | 3.22 | 10.8 | < 10 | 89.7 | 29.6 | > 100 | 23.8 | 66.2 | 10.2 | 26.0 | GI50 ([2]; M14 melanoma cell line): 7.88 µM; GI50 ([5]; UACC-62 melanoma cell line): 9.54 µM; TGI (total growth inhibition) [6]: 94.5 µM; CC50 [8]: > 100 µM; GI50 [8]: 21.2 µM; TGI (total growth inhibition) [8]: >100 µM; LC50 (50% lethal concentration) [9]: > 100 µM; GI50 [9]: 17.1 µM; TGI (total growth inhibition) [9]: 60.8 µM; IC50 [11]: 21 µM |
| Cc1ccc(Nc2nc3c(s2)C2=CC[C@@H]4[C@H](CC[C@]5(C)C(=O)CC[C@@H]45)[C@@]2(C)CC3)c(C)c1 [Compound 7] | > 100 | 3.02 | >100 | 1.85 | > 100 | 3.79 | 2.31 | > 100 | 6.08 | 5.96 | 1.64 | 3.13 | 1.72 | 9.02 | 3.94 | > 100 | 3.7 | 7.47 | 1.86 | 3.73 | CC50 [8]: > 100 µM; GI50 [8]: 1.99 µM; TGI (total growth inhibition) [8]: 5.55 µM; LC50 (50% lethal concentration) [9]: 22.7 µM; GI50 [9]: 2.19 µM; TGI (total growth inhibition) [9]: 4.74 µM; IC50 [11]: 40 µM |
| C[C@]12CCc3nc(Nc4cccc(O)c4)sc3C1=CC[C@@H]1[C@@H]2CC[C@]2(C)C(=O)CC[C@@H]12 [Compound 4] | > 100 | 2.53 | >100 | 2.97 | > 100 | >100 | ≥ 1.32 | > 100 | 3.31 | 5.94 | 1.67 | 3.15 | 2.08 | > 100 | 5.25 | > 100 | 3.69 | > 100 | 5.7 | >100 | GI50 ([3]; SK-MEL-28 melanoma cell line): 1.32 µM; TGI (total growth inhibition) [6]: >100 µM; CC50 [8]: > 100 µM; GI50 [8]: 1.49 µM; TGI (total growth inhibition) [8]: 3.01 µM; LC50 (50% lethal concentration) [9]: 91.4 µM; GI50 [9]: 2.86 µM; TGI (total growth inhibition) [9]: 9.99 µM; IC50 [11]: 8.6 µM; EndoG mean intensity [12]: No significant induction; CAD mean intensity [13]: No significant induction; colocalization of CAD with TUNEL (caspase-mediated apoptosis) [13]: induced the colocalization of CAD with TUNEL; HO1 mean intensity (oxidative injury) [14]: induced oxidative injury |
